Source: patent publication US11844785B2, “3-(phenyl)-N-(4-phenoxybenzyl)-1,2,4-oxadiazole-5-carboxamide compounds for the management of CFTR protein mediated diseases” (Emory University, priority 2015, dated 2023)
Where two headings read alike, the source gives them in different places.

Columns and labels:
mCFTR = mCFTR (Mus musculus, UniProt P26361); settings: cited from earlier work
hCFTR = hCFTR (Homo sapiens, UniProt P13569); settings: cited from earlier work
F508del-hCFTR = target: T1, F508del-hCFTR (Homo sapiens, UniProt P13569, DEL508-508); experiment: Two-electrode voltage clamp (TEVC) on Xenopus oocytes expressing F508del-hCFTR; format: cell-based; settings: FIG. 2C
T1 construct: expressed in transfected cells; host or cells: Xenopus laevis oocytes injected with cRNA; mutant made by Quikchange site-directed mutagenesis of hCFTR/pGEMHE
Text: (§1) In order to identify compounds that potentiate F508del-hCFTR expressed in Xenopus oocytes, the effects of IOWH-032 on WT, R352A, and F508del-hCFTR were studied using the two-electrode voltage clamp (TEVC) technique. […] See Drumm et al. Chloride conductance expressed by delta F508 and other mutant CFTRs in Xenopus oocytes. Science, 1991, 254(5039): 1797-1799. Extracellular exposure to IOWH-032 potentiated WT and F508del-hCFTR channels.
(§2) Human CFTR cRNAs used in electrophysiology experiments were prepared from constructs encoding WT-hCFTR in the pGEMHE vector (hCFTR/pGEMHE kindly provided by Dr. D. Gadsby, Rockefeller University). The mutants of hCFTR used in this study were prepared using site-directed mutagenesis with the Quikchange protocol (Stratagene, La Jolla, CA) and mutant constructs were verified by sequencing across the entire open reading frame before use. […]
(§3) Standard two-electrode voltage clamp (TEVC) techniques were used to study the effects of chemicals with application of reagents to the extracellular bath. […] Electrode resistances measured 0.5-1.4 MΩ when filled with 3 M KCl and measured in standard ND96 bath solution that contained (in mM): 96 NaCl, 2 KCl, 1 MgCl2, and 5 HEPES (pH 7.5). […]

[1] = target: T2, human CFTR with a R352A mutation (Homo sapiens, UniProt P13569, R352A); experiment: Two-electrode voltage clamp (TEVC) on Xenopus oocytes expressing R352A-hCFTR; format: cell-based; settings: FIG. 2B
T2 construct: expressed in transfected cells; host or cells: Xenopus laevis oocytes injected with cRNA; mutant made by Quikchange site-directed mutagenesis of hCFTR/pGEMHE
Text: as §1, §2, §3

[2] = target: T3, wildtype human CFTR (WT-hCFTR) (Homo sapiens, UniProt P13569); experiment: Two-electrode voltage clamp (TEVC) on Xenopus oocytes expressing WT-hCFTR; format: cell-based; settings: for Kd: FIG. 2A
T3 construct: expressed in transfected cells; host or cells: Xenopus laevis oocytes injected with cRNA (hCFTR/pGEMHE, gift of D. Gadsby)
Text: as §1
Human CFTR cRNAs used in electrophysiology experiments were prepared from constructs encoding WT-hCFTR in the pGEMHE vector (hCFTR/pGEMHE kindly provided by Dr. D. Gadsby, Rockefeller University). The mutants of hCFTR used in this study were prepared using site-directed mutagenesis with the Quikchange protocol (Stratagene, La Jolla, CA) and mutant constructs were verified by sequencing across the entire open reading frame before use. Xenopus laevis oocytes were injected with 0.4-10 ng of CFTR cRNAs, and were incubated at 17° C. in modified Liebovitz's L-15 media with the addition of HEPES (pH 7.5), penicillin, and streptomycin. Recordings were made typically 24-96 hours after the injection of cRNAs.
Standard two-electrode voltage clamp (TEVC) techniques were used to study the effects of chemicals with application of reagents to the extracellular bath. Each oocyte was injected with CFTR cRNA along with cRNA encoding the beta2-adrenergic receptor (β2AR). Electrode resistances measured 0.5-1.4 MΩ when filled with 3 M KCl and measured in standard ND96 bath solution that contained (in mM): 96 NaCl, 2 KCl, 1 MgCl2, and 5 HEPES (pH 7.5). CFTR channels were activated by exposure to 10 μM isoproterenol (ISO) in ND 96 and alternatively assayed in the presence or absence of different concentrations of compounds in the bath solution, typically in the continuing presence of ISO. Currents were acquired with an Axoclamp 900A amplifier and Clampex 10.2 software, and current data were digitized at 2 kHz.

[3] = extracellular exposure, TEVC, Xenopus oocytes

T3 sequence (P13569 whole entry): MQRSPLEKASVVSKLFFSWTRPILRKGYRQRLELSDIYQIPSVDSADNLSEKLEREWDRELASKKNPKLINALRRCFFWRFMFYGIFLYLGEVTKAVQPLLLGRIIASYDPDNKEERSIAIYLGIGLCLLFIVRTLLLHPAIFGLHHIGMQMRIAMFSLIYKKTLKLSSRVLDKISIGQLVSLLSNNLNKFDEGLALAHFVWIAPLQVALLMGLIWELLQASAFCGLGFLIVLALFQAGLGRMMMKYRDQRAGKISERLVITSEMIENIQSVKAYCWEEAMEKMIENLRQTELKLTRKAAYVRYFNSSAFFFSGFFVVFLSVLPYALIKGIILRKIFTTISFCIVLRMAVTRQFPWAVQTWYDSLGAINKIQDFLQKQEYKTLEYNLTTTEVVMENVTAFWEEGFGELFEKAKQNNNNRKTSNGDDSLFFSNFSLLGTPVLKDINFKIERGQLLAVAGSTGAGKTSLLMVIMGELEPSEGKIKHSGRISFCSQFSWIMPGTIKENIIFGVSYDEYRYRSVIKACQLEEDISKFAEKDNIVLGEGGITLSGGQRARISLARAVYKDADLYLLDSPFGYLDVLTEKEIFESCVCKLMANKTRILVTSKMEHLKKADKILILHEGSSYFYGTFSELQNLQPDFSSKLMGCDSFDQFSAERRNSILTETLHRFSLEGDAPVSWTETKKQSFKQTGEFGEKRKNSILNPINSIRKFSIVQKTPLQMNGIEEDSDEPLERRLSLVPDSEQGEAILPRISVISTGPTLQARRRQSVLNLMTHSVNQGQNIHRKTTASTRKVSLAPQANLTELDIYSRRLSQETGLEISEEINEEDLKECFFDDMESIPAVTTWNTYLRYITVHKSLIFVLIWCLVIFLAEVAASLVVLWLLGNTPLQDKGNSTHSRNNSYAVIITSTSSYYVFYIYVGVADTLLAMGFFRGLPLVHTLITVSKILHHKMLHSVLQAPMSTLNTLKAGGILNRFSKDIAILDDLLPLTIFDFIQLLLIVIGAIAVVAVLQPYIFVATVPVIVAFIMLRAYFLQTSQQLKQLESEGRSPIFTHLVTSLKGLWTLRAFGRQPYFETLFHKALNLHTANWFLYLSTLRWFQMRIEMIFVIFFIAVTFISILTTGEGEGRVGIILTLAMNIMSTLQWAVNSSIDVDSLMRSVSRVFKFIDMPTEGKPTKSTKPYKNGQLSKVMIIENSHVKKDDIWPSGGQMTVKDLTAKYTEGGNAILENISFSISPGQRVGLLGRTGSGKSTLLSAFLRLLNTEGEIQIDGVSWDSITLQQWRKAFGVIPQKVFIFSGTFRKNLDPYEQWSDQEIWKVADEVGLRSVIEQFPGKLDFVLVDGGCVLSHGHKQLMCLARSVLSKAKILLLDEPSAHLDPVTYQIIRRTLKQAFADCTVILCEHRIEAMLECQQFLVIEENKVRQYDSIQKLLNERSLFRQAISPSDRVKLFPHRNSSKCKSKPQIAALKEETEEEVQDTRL
mCFTR, sequence (P26361 whole entry): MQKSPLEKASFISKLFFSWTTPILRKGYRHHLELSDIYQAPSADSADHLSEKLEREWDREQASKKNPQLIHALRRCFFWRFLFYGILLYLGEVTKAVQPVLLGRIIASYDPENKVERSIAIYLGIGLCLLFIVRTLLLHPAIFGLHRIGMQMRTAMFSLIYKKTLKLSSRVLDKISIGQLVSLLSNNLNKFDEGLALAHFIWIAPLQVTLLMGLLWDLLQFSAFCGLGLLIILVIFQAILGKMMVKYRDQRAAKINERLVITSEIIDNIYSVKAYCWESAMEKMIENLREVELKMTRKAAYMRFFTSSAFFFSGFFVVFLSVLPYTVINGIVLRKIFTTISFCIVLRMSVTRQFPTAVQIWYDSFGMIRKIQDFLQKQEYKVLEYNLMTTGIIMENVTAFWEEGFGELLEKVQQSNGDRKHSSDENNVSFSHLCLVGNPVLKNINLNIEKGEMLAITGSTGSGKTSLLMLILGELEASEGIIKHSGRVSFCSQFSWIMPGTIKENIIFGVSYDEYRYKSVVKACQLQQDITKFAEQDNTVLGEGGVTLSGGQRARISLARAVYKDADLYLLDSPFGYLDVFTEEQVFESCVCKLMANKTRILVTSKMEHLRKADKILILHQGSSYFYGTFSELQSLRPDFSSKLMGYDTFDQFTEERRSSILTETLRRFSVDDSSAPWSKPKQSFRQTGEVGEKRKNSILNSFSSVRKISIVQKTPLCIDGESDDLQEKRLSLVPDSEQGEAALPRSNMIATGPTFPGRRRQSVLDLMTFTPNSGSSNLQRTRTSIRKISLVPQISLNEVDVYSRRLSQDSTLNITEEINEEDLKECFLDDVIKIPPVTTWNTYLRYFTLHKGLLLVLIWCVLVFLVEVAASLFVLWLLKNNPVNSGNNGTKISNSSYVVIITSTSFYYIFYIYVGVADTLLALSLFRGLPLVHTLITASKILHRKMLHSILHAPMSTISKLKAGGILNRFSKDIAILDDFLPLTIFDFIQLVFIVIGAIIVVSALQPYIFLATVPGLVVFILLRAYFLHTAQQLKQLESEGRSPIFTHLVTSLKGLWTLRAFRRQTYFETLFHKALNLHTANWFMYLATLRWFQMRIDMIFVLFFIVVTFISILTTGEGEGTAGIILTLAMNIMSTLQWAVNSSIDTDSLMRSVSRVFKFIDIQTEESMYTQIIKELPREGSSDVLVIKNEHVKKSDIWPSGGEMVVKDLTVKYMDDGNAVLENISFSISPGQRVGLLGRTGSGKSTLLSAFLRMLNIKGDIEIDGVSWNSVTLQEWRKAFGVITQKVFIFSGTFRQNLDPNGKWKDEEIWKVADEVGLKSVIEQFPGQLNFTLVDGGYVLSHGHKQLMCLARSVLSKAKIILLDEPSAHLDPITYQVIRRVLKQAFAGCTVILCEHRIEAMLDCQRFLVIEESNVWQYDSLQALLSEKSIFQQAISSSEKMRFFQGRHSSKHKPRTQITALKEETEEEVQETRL
hCFTR, sequence (P13569 whole entry): as the sequence (P13569 whole entry) above
T1 sequence (P13569 with tags, fused parts or gaps DEL508-508): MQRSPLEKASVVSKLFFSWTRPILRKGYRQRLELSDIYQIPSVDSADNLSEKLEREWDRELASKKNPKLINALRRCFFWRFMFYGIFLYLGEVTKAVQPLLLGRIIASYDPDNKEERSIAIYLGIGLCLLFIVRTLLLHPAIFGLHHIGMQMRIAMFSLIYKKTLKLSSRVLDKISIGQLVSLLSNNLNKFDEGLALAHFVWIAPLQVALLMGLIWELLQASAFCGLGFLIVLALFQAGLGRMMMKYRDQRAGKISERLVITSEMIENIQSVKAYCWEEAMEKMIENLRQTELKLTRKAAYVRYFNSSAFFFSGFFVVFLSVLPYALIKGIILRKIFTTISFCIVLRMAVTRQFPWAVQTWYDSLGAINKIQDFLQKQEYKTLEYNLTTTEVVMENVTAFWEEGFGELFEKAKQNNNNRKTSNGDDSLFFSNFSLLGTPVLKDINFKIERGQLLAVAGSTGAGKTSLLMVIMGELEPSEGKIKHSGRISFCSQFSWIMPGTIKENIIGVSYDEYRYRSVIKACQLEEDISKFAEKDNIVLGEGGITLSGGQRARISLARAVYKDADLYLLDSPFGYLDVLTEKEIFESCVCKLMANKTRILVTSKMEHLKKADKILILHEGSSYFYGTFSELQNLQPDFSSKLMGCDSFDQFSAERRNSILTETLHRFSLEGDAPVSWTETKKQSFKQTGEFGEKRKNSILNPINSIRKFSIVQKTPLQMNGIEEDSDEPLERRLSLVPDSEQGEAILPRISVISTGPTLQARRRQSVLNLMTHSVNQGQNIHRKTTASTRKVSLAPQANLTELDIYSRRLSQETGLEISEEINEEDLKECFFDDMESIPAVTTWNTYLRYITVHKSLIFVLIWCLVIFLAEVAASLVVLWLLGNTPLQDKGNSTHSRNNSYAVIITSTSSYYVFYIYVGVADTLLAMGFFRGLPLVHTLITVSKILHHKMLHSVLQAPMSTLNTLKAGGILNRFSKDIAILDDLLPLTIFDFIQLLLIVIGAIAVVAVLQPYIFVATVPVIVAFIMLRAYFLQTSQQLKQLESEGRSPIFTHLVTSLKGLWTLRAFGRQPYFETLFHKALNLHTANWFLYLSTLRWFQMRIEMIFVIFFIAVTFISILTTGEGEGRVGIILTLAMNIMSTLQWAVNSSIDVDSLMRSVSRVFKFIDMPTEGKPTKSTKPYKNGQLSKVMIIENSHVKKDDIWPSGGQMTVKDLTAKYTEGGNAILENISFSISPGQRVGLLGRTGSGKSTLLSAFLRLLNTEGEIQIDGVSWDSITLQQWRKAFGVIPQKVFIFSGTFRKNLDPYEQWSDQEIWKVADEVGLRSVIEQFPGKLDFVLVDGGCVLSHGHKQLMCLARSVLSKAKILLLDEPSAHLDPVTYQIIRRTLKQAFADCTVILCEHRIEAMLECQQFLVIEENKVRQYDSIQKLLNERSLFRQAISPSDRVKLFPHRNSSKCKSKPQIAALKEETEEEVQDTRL
T2 sequence (P13569 whole entry R352A): as the sequence (P13569 whole entry) above, with R352A counted along it

Q: With `O=C(CNc1ccc2ccccc2c1)N/N=C/c1cc(Br)c(O)c(Br)c1O` [GlyH-101] as the compound, how does the “Potentiation of mCFTR” value (mCFTR) read?
A: The value was “potentiate”.

Q: Which “Potentiation of hCFTR” value (hCFTR; channel incompletely phosphorylated, activated by a low concentration of PKA) does the source give for `O=C(O)c1cc([N+](=O)[O-])ccc1NCCCc1ccccc1` [NPPB] here?
A: Its value is “potentiate”.

Q: And the “Potentiation of hCFTR” value (hCFTR; extremely high concentrations of NPPB)?
A: The value was “potentiate”.

Q: Which “Potentiation of mCFTR” value (mCFTR) does the source give for `COc1ccc(Cl)cc1C(=O)NCCc1ccc(S(=O)(=O)NC(=O)NC2CCCCC2)cc1` [glibenclamide] here?
A: The value was “potentiate”.

Q: With `O=C(NCc1ccc(Oc2ccccc2)cc1)c1nc(-c2cc(Br)c(O)c(Br)c2)no1` [iOWH-032, 3-(3,5-dibromo-4-hydroxyphenyl)-N-(4-phenoxybenzyl)-1,2,4-oxadiazole-5-carboxamide] as the compound, how does the “Inhibition of F508del human CFTR” value (F508del-hCFTR) read?
A: The value was “did not inhibit”.

Q: What about the “Potentiation of F508del human CFTR” value (F508del-hCFTR; [3]) of the same compound?
A: Its value is “potentiated”.

Q: And the “Inhibition of R352A human CFTR” value [1]?
A: The value was “did not inhibit”.

Q: And the “Potentiation of R352A human CFTR” value [1]?
A: Its value is “potentiated”.

Q: And the Kd ([2]; inhibition component, read-out: Kd of inhibition of WT-hCFTR)?
A: Its Kd is 6.1 nM.

Q: What about the Kd ([2]; potentiation component, read-out: Kd of potentiation of WT-hCFTR) of the same compound?
A: Its Kd is 0.64 nM.

Q: What about the “Potentiation of WT-hCFTR channels” value [2, 3] of the same compound?
A: Its value is “potentiated”.
